Target: human NLRP3 (Homo sapiens, UniProt Q96P20)
Assay: SPR analysis of interaction with human NLRP3
Type: binding
Experimental: VEN-02XX was profiled in vitro to confirm specific binding to human NLRP3 as well as activity in various cellular assays.
The human NLRP3 protein was immobilized onto a nickel-NTA surface (Xantec NiHC1500M). Assay was run in 25 mM HEPES pH 7.5, 150 mM NaCl, 5 mM MgCl2, 0.5 mM TCEP, 0.5 mM ADP, 0.05% Tween-20 and 1% DMSO at 25 °C. Single-cycle method was used, and compound was injected over surface with a contact time of 120 s on and 600 s off by Biocore 8 K machine (Cytiva). A 5-points solvent correction curve was run pre and post run to correct for refractive index of DMSO. Data was then analyzed using the Biacore evaluation software to report binding kinetic parameters.

Chain of human NLRP3 (Q96P20 whole entry): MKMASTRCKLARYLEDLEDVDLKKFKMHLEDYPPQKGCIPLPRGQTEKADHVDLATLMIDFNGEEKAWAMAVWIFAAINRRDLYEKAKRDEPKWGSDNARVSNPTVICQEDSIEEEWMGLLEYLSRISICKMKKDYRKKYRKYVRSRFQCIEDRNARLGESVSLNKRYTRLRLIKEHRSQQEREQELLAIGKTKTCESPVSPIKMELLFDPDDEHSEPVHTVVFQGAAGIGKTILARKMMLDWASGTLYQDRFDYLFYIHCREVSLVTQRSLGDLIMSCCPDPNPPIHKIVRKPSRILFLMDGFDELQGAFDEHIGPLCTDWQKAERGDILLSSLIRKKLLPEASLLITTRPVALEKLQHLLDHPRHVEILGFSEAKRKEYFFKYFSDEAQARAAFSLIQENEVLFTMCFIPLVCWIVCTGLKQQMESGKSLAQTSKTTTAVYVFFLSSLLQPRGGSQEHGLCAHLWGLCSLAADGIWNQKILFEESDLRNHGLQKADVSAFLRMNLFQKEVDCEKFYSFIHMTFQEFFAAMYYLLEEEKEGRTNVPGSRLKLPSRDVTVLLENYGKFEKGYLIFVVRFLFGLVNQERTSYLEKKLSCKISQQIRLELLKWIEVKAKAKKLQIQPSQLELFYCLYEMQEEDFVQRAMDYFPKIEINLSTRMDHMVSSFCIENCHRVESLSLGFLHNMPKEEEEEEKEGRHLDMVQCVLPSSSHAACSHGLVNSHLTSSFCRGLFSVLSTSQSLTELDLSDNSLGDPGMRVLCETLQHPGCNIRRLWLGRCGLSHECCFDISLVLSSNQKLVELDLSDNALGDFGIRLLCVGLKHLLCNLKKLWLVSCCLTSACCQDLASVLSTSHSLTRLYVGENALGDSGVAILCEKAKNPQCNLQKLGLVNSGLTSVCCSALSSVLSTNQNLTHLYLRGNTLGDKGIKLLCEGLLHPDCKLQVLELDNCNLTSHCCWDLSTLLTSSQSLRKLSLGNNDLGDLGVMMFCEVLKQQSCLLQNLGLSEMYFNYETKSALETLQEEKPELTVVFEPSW

SMILES: CC(C)(O)CNc1nnc(-c2ccc(Cl)cc2C(F)(F)F)c2ccncc12 [VEN-02XX]
- Kd (human NLRP3): 93.3 nM
- residence time (human NLRP3, read-out: residence time (1/kd) (converted)): 12.9 min
- kon (pH 7.5, 1:1 binding, read-out: ka): 13800 M⁻¹ s⁻¹
